Source: patent publication US20240025946A1, “Cyclic Tetrapeptides and Metal Complexes Thereof” (priority 2020, published 2024)
Numbered stars: 1 amine (or outer) side, 2 acyl side, 3 side chain; on linkers, the order of the positions; unused ones are H or OH. Square brackets hold non-standard residues; d marks the D form. Ends that are not written are not given here. SAsp = aspartic acid substituted by -SH; βAsp = O=C(O)[C@H](CC(=O)[*:2])N[*:1]; β3hE = N[C@@H](CCC(=O)O)CC(=O)O; βAla = NCCC(=O)O

Legend:
HT-29 cells [1] = test: In vitro recovery test: Pb detoxification of poisoned human cells, crystal violet; format: cell-based; conditions: for effect of the counter cation (Ca vs. Na salt) on detoxification activity: HT-29, FIG. 2d; for Recovery HT-29 (%): highest concentration 10 mM (5 equiv.), vs poisoned untreated cells, mean, SD
Description: (§1) Desalted peptides were then assessed for their ability to detoxify Pb (FIGS. 2a-d). The inventors designed two assays for rapid and reliable screening of potential CAs both in vivo on bacteria and then in vitro on human cell culture. Briefly, DH5a or HT-29 cells were first exposed to Pb(NO3)2 slightly below the minimal inhibitory concentration and then treated with various concentrations of the investigated CA, ranging from 0.1 to 10 equivalents. The viability of the cells was determined by colony counting or by crystal violet (Feoktistova et al, 2016), for the bacteria and the human cells, respectively, and was compared to poisoned cells that were not treated with any CA as the negative control. […] On the other hand, testing the compounds on human cells cannot be performed with insoluble compounds but is more relevant for medicinal purposes.
96-well plates were prepared such that every well contains 10,000 cells in 100 μL medium, and the cells were allowed to adhere overnight. To all wells but the positive control, 10 μL of 22 mM Pb(NO3)2 were added (final concentration 2 mM). 10 μL of H2O was added to the positive control wells. 60 min after addition of metal, 10 μL of each solution of the examined CA (2.4, 6, 12, 24, 48, and 120 mM) were added to reach final concentrations of 0.2, 0.5, 1, 2, 4, and 10 mM (which are 0.1, 0.25, 0.5, 1, 2, and 5 equivalents, respectively). To the positive control wells containing no metal and the negative control wells containing metal but no CA, 10 μL of H2O were added. Each condition was performed in triplicates. The plates were incubated at 37° C. and 5% CO2 for an additional 23 h, after which the medium was removed, washed with fresh medium and 50 μL of crystal violet solution (0.5% crystal violet powder in 20 mL MeOH and 80 mL H2O) to each well and the plates were gently shaken (60 rpm) for 20 min. The plates were then washed with H2O until no more unbound dye was observed and allowed to dry overnight. 200 μL of MeOH were added to each well, and the plates were gently shaken (60 rpm) for 20 min, after which their absorbance at 560 nm was read with a plate reader. The recovery of each concentration of CA was calculated according to equation 2:
(§2) A[CAx]—absorbance of the pre-toxified well in the presence of X mM of CA
(§3) A[blank]—absorbance of blank wells (contain nothing)
A[NEG]—absorbance of the pre-toxified well that contains no CA
(§4) Each experiment was performed on three independent occasions. Values are mean±SD of >3 repeats each performed in triplicate.

DH5α E. coli = test: In vivo recovery test: Pb detoxification of poisoned bacteria, colony counting; format: cell-based; conditions: for Recovery DH5α (%): highest concentration 120 mM (10 equiv.), Pb(NO3)2 12 mM, vs poisoned untreated cells, mean; for detoxification ability in poisoned E. coli (in words): compared to the benchmark compounds, FIG. 2a
Description: as §1
HRMS (ESI) m/z calculated for C16H26N4O4SNa^+ [M+Na]^+ 427.14442; found: 427.14447 In vivo recovery tests A single colony of DH5a E. coli WT cells was grown overnight at 37° C. and 220 rpm in Tris Minimal Medium (TMM, pH 6.0; 5 mL) without antibiotics. The culture was then diluted to an OD600 of 0.03 with additional TMM to a total volume of 5 mL, and its OD600 was monitored. Upon cell density of 0.25 (which was achieved after 3-5 h), 1 mL of the culture was transferred into a cell culture tube and was labeled as the positive control. To additional 3 mL of the culture, 36 μL of Pb(NO3)2 1 M were added (final concentration of 12 mM). Both cultures were shaken at 37° C. and 220 rpm for an additional 5 h.
Aqueous stock solutions of each CA were plated on freshly prepared agar-LB plates such that the final concentration of each compound is equal to 0.5, 1, 2, 5, and 10 equivalents, compared to the amount of Pb(NO3)2 in 50 μL pre-toxified culture. The stock solutions were prepared such that plating and equally spreading 30 μL of each solution will provide the desired amount of CA. To additional two plates, 30 μL of H2O was added.
50 μL of the pre-toxified culture were homogenously spread to each CA-containing plate, 5 h after adding the metal to the culture. The Pb-containing culture was also plated on one of the two H2O-containing plates and was labeled as the negative control. Lastly, 50 μL of the non-toxified culture were platted on the second H2O-containing plate and was labeled as positive control. All plates (positive and negative control and five plates for each examined compound) were then incubated at 37° C. overnight. The plates were then imaged, and the colonies were counted (with Vilber Quantum Visualization System). The recovery of each concentration of CA was calculated according to equation 1: […]
#CAx—number of colonies of pre-toxified culture in a plate containing X mM of CA
#NEG—number of colonies of pre-toxified culture in a plate containing no CA
as §4

HT-29 cells [2] = test: In vitro toxicity test, crystal violet; format: cell-based, human; conditions: HT-29, 24 h; for IC50: concentration at 50% viability, mean (SD), n.d. = not detected as it is too high
Description: 96-well plates were prepared such that every well contains 10,000 cells in 100 μL medium, and the cells were allowed to adhere overnight.
To all wells but the positive control, 10 μL of each solution of the examined CA (2.4, 6, 12, 24, 48, and 120 mM) were added to reach final concentrations of 0.2, 0.5, 1, 2, 4, and 10 mM. To the positive control wells, 10 μL of H2O was added. Each condition was performed in triplicates. The plates were incubated at 37° C. and 5% CO2 for 24 h, after which the medium was removed, washed with fresh medium and 50 μL of crystal violet solution (0.5% crystal violet powder in 20 mL MeOH and 80 mL H2O) to each well and the plates were gently shaken (60 rpm) for 20 min. The plates were then washed with H2O until no more unbound dye was observed and allowed to dry overnight. 200 μL of MeOH were added to each well, and the plates were gently shaken (60 rpm) for 20 min, after which their absorbance at 560 nm was read with a plate reader. The toxicity of each concentration of CA was calculated according to equation 3:
as §2, §3
A[POS]—absorbance of well that contains no CA
as §4

[3] = Aqueous solubility of the peptides; format: physicochemical
Excerpt: Attempts to solubilize them, including in different pH conditions, formulation with PEG or co-solvent systems with DMSO failed. Therefore, two analogs of 1 where βAla is substituted by PAsp or PhGlu, to form peptides 1a and 1b, respectively, were synthesized. […] Their low activity might be related to either (a) competition in coordination with Pb^2+ by the two carboxylates, which destabilizes the complexation, or (b) a decrease in their metal selectivity and coordination alkali or alkaline earth metal ions.

male mice (C57BL/6) = test: Pb-poisoned mice: blood lead level and urinary Pb by ICP-MS; format: in vivo; conditions: for BLL / Urinary Pb (ppm): 30 mg kg^−1 day^−1, days 10-16; for BLL: blood on day 18, eight mice; for Urinary Pb (ppm): urine on day 18
Description: Peptide 8a was then tested in mice. 40 male mice (C57BL/6) aged 6-8 weeks were provided with 20 mM Pb(OAc)2 solution as the sole water supply for seven days (days 1-7). This poisoning route mimics chronic exposure in humans. Two days after returning to clean water (day 9), they were randomly divided into five groups of eight mice. They received a single treatment per day for seven days (days 10-16) of either CaNa2EDTA, DMSA, or 8a at a concentration of 30 mg kg^−1 except for group 1 that served as the negative control (Table 3).
Blood samples (100 μL) were collected before dosing the mice on days 10-15 and on day 18, which is two days after the last dosing and the day by which the experiment was terminated. Urine was also collected from 34 animals on day 18 and was kept frozen until analysis.

[4] = inhibition at the highest concentration (10 mM), mean, SD
[5] = also different pH, PEG formulation, DMSO co-solvent failed
[6] = soluble^b = with the addition of 2 equiv. NaOH or 1 equiv. of Ca(OH)2

## O=C(O)CN(CCN(CC(=O)O)CC(=O)O)CC(=O)O [EDTA, ethylenediaminetetraacetic acid]
HT-29 cells [1]
  effect of the counter cation (Ca vs. Na salt) on detoxification activity: higher activity as a Ca-salt

## N[C@@H](CCC(=O)N[C@@H](CS)C(=O)NCC(=O)O)C(=O)O [GSH, glutathione]
DH5α E. coli
  Recovery DH5α (%): 39%
HT-29 cells [1]; Pb(NO3)2 2 mM
  Recovery HT-29 (%): 126%
HT-29 cells [2]; Homo sapiens
  IC50: 9.6 mM
HT-29 cells [2]; Homo sapiens, inhibition at the highest concentration (10 mM), mean, SD, read-out: Toxicity Maximal inhibition (%)
  inhibition at 10000 µM: 57%

## O=C([O-])CN(CCN(CC(=O)[O-])CC(=O)O)CC(=O)O.[Na+].[Na+] [Na2EDTA]
DH5α E. coli
  Recovery DH5α (%): 107%
HT-29 cells [1]; Pb(NO3)2 2 mM
  Recovery HT-29 (%): 41%
HT-29 cells [2]
  IC50: 0.6 mM
HT-29 cells [2]; [4]
  Toxicity Maximal inhibition (%): 72%

## O=C1CCNC(=O)[C@H](CS)NC(=O)CCNC(=O)[C@H](CS)N1 [compound 1, Cys-βAla-Cys-βAla]
DH5α E. coli; DH5α, treatment after Pb(NO3)2
  increase of recovery of poisoned E. coli: more than 8 fold
DH5α E. coli
  detoxification ability in poisoned E. coli (in words): outstanding results
[3]; [5]
  Aqueous solubility: low aqueous solubility
[3]; [6]
  Aqueous solubility: insoluble

## CSCC[C@@H]1NC(=O)CCNC(=O)[C@H](CCSC)NC(=O)CCNC1=O [compound 3, Met-βAla-Met-βAla]
DH5α E. coli
  Recovery DH5α (%): 139%
[3]; [6]
  Aqueous solubility: insoluble

## O=C1CCNC(=O)[C@H](Cc2c[nH]cn2)NC(=O)CCNC(=O)[C@H](Cc2c[nH]cn2)N1 [compound 4, His-βAla-His-βAla]
DH5α E. coli
  Recovery DH5α (%): 80%
HT-29 cells [1]; Pb(NO3)2 2 mM
  Recovery HT-29 (%): 106%
HT-29 cells [2]
  IC50: 5.8 mM
HT-29 cells [2]; [4]
  Toxicity Maximal inhibition (%): 62%
[3]; [6]
  Aqueous solubility: Soluble

## O=C(O)C[C@@H]1NC(=O)CCNC(=O)[C@H](CC(=O)O)NC(=O)CCNC1=O [compound 5, Asp-βAla-Asp-βAla]
DH5α E. coli
  Recovery DH5α (%): 150%
HT-29 cells [1]; Pb(NO3)2 2 mM
  Recovery HT-29 (%): 121%
HT-29 cells [2]; [4]
  Toxicity Maximal inhibition (%): 44%
[3]; [6]
  Aqueous solubility: soluble^b

## CSCC[C@@H]1NC(=O)CCNC(=O)[C@H](CS)NC(=O)CCNC1=O [compound 6, Cys-βAla-Met-βAla]
DH5α E. coli
  detoxification ability in poisoned E. coli (in words): outstanding results
[3]; [5]
  Aqueous solubility: low aqueous solubility
[3]; [6]
  Aqueous solubility: insoluble

## O=C1CCNC(=O)[C@H](Cc2c[nH]cn2)NC(=O)CCNC(=O)[C@H](CS)N1 [compound 7, Cys-βAla-His-βAla]
DH5α E. coli
  Recovery DH5α (%): 47%
[3]; [6]
  Aqueous solubility: insoluble

## O=C1CCNC(=O)[C@H](Cc2ccccc2)NC(=O)CCNC(=O)[C@H](CS)N1 [compound 9, Cys-βAla-Phe-βAla]
DH5α E. coli
  Recovery DH5α (%): 180%
[3]; [6]
  Aqueous solubility: insoluble

## O=C1CCNC(=O)[C@@H](CS)NC(=O)CCNC(=O)[C@H](CS)N1 [peptide 2, Cys-βAla-DCys-βAla]
DH5α E. coli
  detoxification ability in poisoned E. coli (in words): outstanding results
[3]; [5]
  Aqueous solubility: low aqueous solubility
[3]; [6]
  Aqueous solubility: insoluble

## C[βAsp]C[βAsp] (cysteine pairing not given here) [1a]
DH5α E. coli
  detoxification ability in poisoned E. coli (in words): unsatisfied
  Recovery DH5α (%): 2%
HT-29 cells [1]; Pb(NO3)2 2 mM
  Recovery HT-29 (%): 106%
HT-29 cells [2]; [4]
  Toxicity Maximal inhibition (%): 0%
[3]
  solubility as Na or Ca salts: high solubility
[3]; [6]
  Aqueous solubility: soluble^b

## [Cys-βhGlu]2 (C[β3hE]C[β3hE]; not fully specified (bridges); printed as [Cys-βhGlu]2; also: cyclic, ring type not given here) [1b, cyclic tetrapeptide]
DH5α E. coli
  detoxification ability in poisoned E. coli (in words): unsatisfied
  Recovery DH5α (%): 30%
[3]
  solubility as Na or Ca salts: high solubility
[3]; [6]
  Aqueous solubility: soluble^b

## cyc-[SAsp-βAla-Asp-βAla] (cyclo([SAsp][βAla]D[βAla])) [8a]
HT-29 cells [1]; Pb(NO3)2 2 mM, CA added 1 h later, vs all investigated peptides and standards of care, FIG. 4
  dose-dependent recovery of HT-29 cells (in words): best results
Male mice (C57BL/6); IV and oral, vs CaNa2EDTA and DMSA, day 18
  removal of Pb in urine compared with the SOCs: 1.3-2.2 folds
Male mice (C57BL/6); IV
  BLL: 16.0 ± 1.5 µg/dL
  Urinary Pb (ppm): 452 ± 47 ppm
Male mice (C57BL/6); IV, day 18
  Pb expelled in urine compared with the untreated group: 2.9 folds
  reduction of average BLL compared to no treatment: 2.1 folds
  reduction of average BLL compared with CaNa2EDTA: 1.6 folds
Male mice (C57BL/6); Oral
  BLL: 17.7 ± 1.3 µg/dL
  Urinary Pb (ppm): 435 ± 28 ppm
Male mice (C57BL/6); oral, day 18
  Pb expelled in urine compared with the untreated group: 2.8 folds
  reduction of BLL compared with DMSA: 1.3 folds
  reduction of BLL compared with no treatment: 1.9 folds

## cyc[Cys-βAla-Asp-βAla] [peptide 8]
DH5α E. coli
  detoxification ability in poisoned E. coli (in words): outstanding results
  Recovery DH5α (%): 279%
HT-29 cells [1]
  effect of the counter cation (Ca vs. Na salt) on detoxification activity: barely affected by the counter cation
HT-29 cells [2]; [4]
  Toxicity Maximal inhibition (%): 15±5%
[3]; [6]
  Aqueous solubility: soluble^b
